# Assay results taken from patent publication US8466185B2, “Methods and assays for detecting and treating hypoglycemia” (priority 2008, dated 2013).
# “Also recorded” adds a separate entry of the source.
# Tests used:
# [1] = system: human islets; experiment: in vitro perifusion, glucagon secretion from human islets; format: cell-based; conditions: for glucagon release / glucagon secretion: agonist 100 μM, 3 mM glucose
# Experimental: (§2) A high-capacity, automated perifusion system was developed to dynamically measure hormone secretion from pancreatic islets. A low pulsatility peristaltic pump pushed HEPES-buffered solution (mM: 125 NaCl, 5.9 KCl, 2.56 CaCl2, 1 MgCl2, 25 HEPES, and 0.1% BSA; pH 7.4; and a perifusion rate of 100 μL/min) through a column containing 100 pancreatic islets immobilized in Bio-Gel P-4 Gel (BioRad, Hercules, Calif.). Except otherwise stated, glucose concentration was adjusted to 3 mM for all experiments. Stimuli were applied with the perifusion buffer. The perifusate was collected in an automatic fraction collector designed for a 96 well plate format. The columns containing the islets and the perifusion solutions were kept at 37° C., and the perifusate in the collecting plate was kept at <4° C. Perifusates were collected every minute. Hormone release in the perifusate was determined with the human or mouse Endocrine LINCOplex Kit following manufacturer's instructions (Linco research, St. Charles, Mo.).
# [2] = system: human islets and dispersed single islet cells; experiment: [Ca^2+]i imaging (Fura-2) of human islets and dispersed islet cells; format: cell-based; conditions: for [Ca^2+]i response: 100 μM
# Experimental: (§1) Glucose was added to give a final concentration of 3 mM. Islets or dispersed islet cells were incubated in Fura-2 AM (2 μM; 1 hour) and placed in a closed small-volume imaging chamber (Warner Instruments, Hamden, Conn.). Stimuli were applied with the bathing solution. Islets loaded with Fura-2 were excited alternatively at 340 and 380 nm with a monochromator light source (Cairn. Research Optoscan Monochromator, Cairn Research Ltd, Faversham, UK). Images were acquired with a Hamamatsu camera (Hamamatsu Corp, Japan) attached to a Zeiss Axiovert 200 microscope (Carl Zeiss, Jena, Germany). Changes in the 340/380 fluorescence emission ratio over time were analyzed in individual islets and dispersed cells using Kinetic Imaging AQM Advance software (Kinetic Imaging, N.C.). Peak changes in the fluorescence ratio constituted the response amplitude.
# [3] = system: monkey islets and dispersed single islet cells; experiment: [Ca^2+]i imaging (Fura-2) of monkey islets and islet cells; format: cell-based, monkey (Macacca fascicularis); conditions: glutamate 100 μM
# Experimental: as §1, with “Imaging of [Ca^2+]i was performed as described elsewhere (Cabrera et al., 2006). […] Glucose” for “Glucose”
# [4] = system: human islets; format: cell-based; conditions: glutamate 100 μM
# Experimental: Perifusion of the islets was stopped after addition of the stimulus to allow the islet secretory products to accumulate and then resumed after 10 minutes.
# [5] = system: mouse islets; experiment: perifusion, glucagon secretion from mouse islets; format: cell-based, mouse (C57Bl/6); conditions: for glucagon release / secretion: 100 μM
# Experimental: as §2
# [6] = system: C57BL/6 mice; experiment: in vivo responses to iGluR agonists injected i.p.; parameters: species or system mouse; conditions: glutamate 30 mg/kg, AMPA 15 mg/kg, i.p.
# Experimental: We examined in vivo responses to iGluR agonists by injecting C57BL/6 mice i.p. with either PBS (n=4), monosodium glutamate (30 mg/kg; n=7), or AMPA (15 mg/kg; n=8). To determine whether blocking iGluRs exacerbates insulin-induced hypoglycemia, we injected the AMPA/kainate iGluR antagonist NBQX (Tocris, Ellisville, Mo.) i.p. at 20 mg/kg 30 minutes before mice were treated with insulin to induce hypoglycemia.
# [7] = Beyreuther et al., 2007; cited from earlier work
# [8] = system: human islets; experiment: in vitro perifusion, insulin release from human islets; conditions: 100 μM
# Experimental: as §2
# [9] = system: monkey islets; experiment: in vitro perifusion, insulin release from monkey islets; conditions: 100 μM; not shown
# [10] = system: isolated human islet cells; experiment: whole-cell patch clamp recordings of dispersed human islet cells; format: cell-based; conditions: kainate 100 μM; holding potential −70 mV
# Experimental: Membrane currents were measured using whole-cell patch clamp recordings of dispersed human islet cells. All recordings were amplified using an EPC10 patch-clamp amplifier and digitized and analyzed using Patchmaster software (Heka Elektronik, Lambrecht, Germany). Pipettes were pulled from borosilicate glass capillaries on a horizontal programmable puller (DMZ Universal Puller, Zeitz-Instrumente, Augsburg, Germany). Pipettes with a resistance of 5-7 MΩ were filled with a pipette solution containing (in mM): 150 NMG (N-methyl-D-Glucamine), 10 EGTA, 1 MgCl2, 2 CaCl2, 5 HEPES and 3 Mg-ATP (pH 7.15). The bath solution contained (in mM): 138 NaCl, 5.6 KCl, 1.2 MgCl2, 2.6 CaCl2, 5 HEPES and 10 TEA (pH7.4). Cells were voltage-clamped at −70 mV. Ligands (e.g. kainate) were applied using the SF-77B Perfusion Fast-Step system (Warner Instruments, Hamden, Conn.), which allows rapid change of solutions bathing a single cell or membrane patch attached to a patch electrode. […] Thus, it is most likely that cells responding to kainate in our electrophysiological experiments were α-cells.
# [11] = system: monkey islets; experiment: microfluorometric determination of endogenous glutamate release from islets; format: cell-based; conditions: kainate 100 μM; KCl 30 mM
# Experimental: Endogenous glutamate release from pancreatic islets was measured with the Amplex Red Glutamic Acid Assay Kit (Molecular Probes) adapted for microscopic microfluorometric detection (Akagi et al., 2003). In this assay, released glutamate is a substrate in an enzymatic chain reaction that generates the highly fluorescent product resorufin (Molecular Probes, Eugene, Oreg.). L-glutamate is oxidized by glutamate oxidase to produce α-ketoglutarate, NH4, and H2O2. Hydrogen peroxide reacts with the Amplex Red reagent in a reaction catalyzed by horseradish peroxidase to generate resorufin. Pancreatic islets were allowed to attach to a glass coverslip previously coated with poly-D-lysine. The coverslip was mounted in a closed small-volume imaging chamber (Warner Instruments) and perifused with the HEPES-buffered solution containing the stimuli. Resorufin fluorescence was excited at 510 nm, and the emission recorded at 590 nm using the same imaging system used to measure [Ca^2+]i (see above).
# [12] = system: mouse islets; experiment: perifusion of mouse islets with β cells destroyed by streptozotocin versus intact islets; format: cell-based; conditions: streptozotocin-treated versus intact islets
# Experimental: This experiment was performed with mouse islets. Two samples were perifused in parallel (“a” and “b”). In “a” (blue curve and blue bar), but not in “b” (red curve and red bar) the β cells were selectively destroyed with streptozotocin. This absence of β cells generates type 1 diabetes-like condition in vitro. The glucagon release profile in panel “A” was obtained by using this model. […] Note that the non specific stimulus arginine is not able to differentiate a functionally impaired α cell in the absence of β cells.
# At t=5 min, both samples were stimulated with 100 μM kainate for 5 min. The glucose was increased to 11 mM for 10 minutes and decreased again to 3 mM for the duration of the perifusion. At t=45 min, both samples (v) were stimulated with 5 mM Arginine. […] Kainate is a glutamate analog that is not metabolizable, and therefore a preferred agonist of the AMPA/Kainate receptors. Error bars represent the standards deviations for n=3 perifusions. Comparison were performed by an independent t-test.
# For example, in some embodiments the present invention are directed to an in vitro model in which we destroy selectively the beta cells with, for example, streptozotocin, thus creating a situation that mimics type 1 diabetes. The treated islets are composed mainly of alpha cells. […] To examine if alpha cells in islets depleted of beta cells had impaired glutamate signaling, we stimulated them with kainate, an agonist for ionotropic glutamate receptors.
structure (smiles),measurement,setting,value
N[C@@H](CCC(=O)O)C(=O)O [glutamate],glucagon release / glucagon secretion,[1],induced glucagon responses
same,glucagon release,[1]; glutamate 1 μM-1 mM,"stimulated large, concentration-dependent increases in glucagon release"
same,cells responding to high glucose (11 mM) that did not respond to glutamate,[2],64 out of 64
same,[Ca^2+]i response,[2],elicited concentration-dependent [Ca^2+]i; responses; also recorded: increases in cytoplasmic free Ca^2+ concentration
same,glutamate-responsive cells that were glucagon-immunoreactive,[2]; n=4 human preparations,34 out of 37
same,[Ca^2+]i response,[3],increases in cytoplasmic free Ca^2+ concentration
same,glucagon secretion from human islets measured by [Ca^2+]i responses in biosensor cells,[4]; islets on biosensor cells,large [Ca^2+]i responses; also recorded: elicited glucagon secretion from human islets
same,[Ca^2+]i response of biosensor cells in the absence of islets,[4]; no islets,did not respond; also recorded: No responses were seen
same,glucagon release / secretion,[5],stimulated glucagon release
same,glucagon responses to glutamate in islets from mGluR4 knockout versus control mice,[5]; glutamate 100 μM,undistinguishable in wild type and mGluR4KO mice
same,plasma insulin concentrations,[6],not affected; also recorded: did not change
same,plasma glucagon concentrations,[6]; 30 minutes after treatment,increased plasma glucagon concentrations
same,plasma glucose concentrations,[6]; thirty minutes after injection,increased glucose levels
same,blood-brain barrier penetration,[7],does not penetrate the blood-brain barrier
same,insulin release,[8],"Neither kainate (100 μM), glutamate (100 μM), nor AMPA (100 μM) stimulated increases in insulin release"
same,insulin release,[9],"Neither kainate (100 μM), glutamate (100 μM), nor AMPA (100 μM) stimulated increases in insulin release"
C=C(C)[C@H]1CN[C@H](C(=O)O)[C@H]1CC(=O)O [kainate],glucagon release / glucagon secretion,[1],stimulated large increases in glucagon secretion; also recorded: Increases in glucagon release could also be elicited
same,glucagon release / glucagon secretion,[1]; listed as Kainate,elicited strong glucagon secretion
same,glucagon immunoreactive cells that responded to kainate,[2],7 out of 9
same,[Ca^2+]i response,[2],large increases in [Ca^2+]i
same,kainate responsive cells that were glucagon immunoreactive,[2]; [Ca^2+]i imaging experiments,> 75%
same,glutamate-responding cells that also responded to kainate,[2]; kainate 100 μM,12 out of 12
same,insulin immunoreactive cells that responded to kainate,[2]; n=8,None
same,whole-cell inward currents,[10],elicited inward currents
same,glutamate release (resorufin fluorescence),[11],induced significant glutamate release; also recorded: strongly released glutamate
same,glucagon release / secretion,[5],stimulated glucagon secretion
same,reduction of amplitude of kainate-induced glucagon release in absence of β cells,[12]; kainate 100 μM for 5 min,55%
same,kainate potentiation of glucagon release in absence versus presence of β cells,[12],not as effective in potentiating glucagon release; also recorded: strongly reduced glucagon responses
same,insulin release,[8],"Neither kainate (100 μM), glutamate (100 μM), nor AMPA (100 μM) stimulated increases in insulin release"
same,insulin release,[9],"Neither kainate (100 μM), glutamate (100 μM), nor AMPA (100 μM) stimulated increases in insulin release"
